For this experiment, the target named is T1, human VDR (Homo sapiens, UniProt P11473).
T1 sequence (P11473 1-427): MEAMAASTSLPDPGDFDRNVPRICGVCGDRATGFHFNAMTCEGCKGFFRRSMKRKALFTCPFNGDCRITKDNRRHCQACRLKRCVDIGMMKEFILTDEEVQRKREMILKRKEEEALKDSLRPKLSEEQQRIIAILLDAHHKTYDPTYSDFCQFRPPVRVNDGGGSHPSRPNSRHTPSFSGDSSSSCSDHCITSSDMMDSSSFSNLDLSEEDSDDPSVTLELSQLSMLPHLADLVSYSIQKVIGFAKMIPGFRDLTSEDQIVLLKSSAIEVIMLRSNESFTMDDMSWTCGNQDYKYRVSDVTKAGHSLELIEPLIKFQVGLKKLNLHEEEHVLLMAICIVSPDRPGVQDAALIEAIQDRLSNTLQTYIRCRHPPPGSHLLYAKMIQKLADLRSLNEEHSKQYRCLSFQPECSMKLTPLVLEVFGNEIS
T1 sequence (P19793 1-462 partner): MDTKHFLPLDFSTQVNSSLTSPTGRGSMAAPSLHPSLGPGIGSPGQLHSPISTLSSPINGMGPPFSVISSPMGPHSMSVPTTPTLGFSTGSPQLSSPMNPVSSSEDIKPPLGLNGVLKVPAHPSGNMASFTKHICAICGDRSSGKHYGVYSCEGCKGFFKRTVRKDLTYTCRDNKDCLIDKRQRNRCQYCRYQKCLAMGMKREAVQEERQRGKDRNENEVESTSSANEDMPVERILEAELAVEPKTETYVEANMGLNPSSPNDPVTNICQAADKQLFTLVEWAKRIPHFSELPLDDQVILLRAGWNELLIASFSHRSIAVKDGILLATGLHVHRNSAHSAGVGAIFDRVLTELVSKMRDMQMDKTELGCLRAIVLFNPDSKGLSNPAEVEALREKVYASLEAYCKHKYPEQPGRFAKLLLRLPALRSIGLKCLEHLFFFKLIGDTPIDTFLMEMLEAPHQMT
The experiment is described as follows: Evaluation of VDR transcription activity in human osteoblasts (HOS cells), luciferase reporter. To be noted: Activity (EC50, VDR transcription activity), HOS cells transfected with human VDR, human RXRα and DR3 luciferase reporter; 21 hours.

As for `C[C@H](CCN1CC[C@H](C(F)F)C1)[C@H]1CC[C@H]2/C(=C/C=C3C[C@@H](O)C[C@H](O)C3)CCC[C@]12C` [Compound B080, (1R,3R)-5-(2-((1R,3aS,7aR,E)-1-((R)-4-((S)-3-(difluoromethyl)pyrrolidin-1-yl)butan-2-yl)-7a-methyloctahydro-4H-inden-4-ylidene)ethylidene)cyclohexane-1,3-diol], the EC50 (usually the concentration needed to bring the measured effect to its halfway point) lay in the range of 0.01 to 0.1 µM.

For `C=C1[C@H](O)CC(=C/C=C2\CCC[C@]3(C)[C@@H]([C@H](C)CN4CCOC(C)(C)C4)CC[C@@H]23)C[C@H]1O` [Compound D014, (1R,3R)-5-(2-((1R,3aS,7aR,E)-1-((S)-1-(2,2-dimethylmorpholino)propan-2-yl)-7a-methyloctahydro-4H-inden-4-ylidene)ethylidene)-2-methylenecyclohexane-1,3-diol], the concentration giving a half-maximal response (EC50) fell in the range of 0.001 to 0.01 µM. To `C=C1/C(=C\C=C2/CCC[C@]3(C)[C@@H]([C@H](C)CN4CCC(C(F)F)CC4)CC[C@@H]23)C[C@@H](O)[C@H](C)[C@@H]1O` [Compound C016, (1R,2S,3S,Z)-5-(2-((1R,3aS,7aR,E)-1-((S)-1-(4-(difluoromethyl)piperidin-1-yl)propan-2-yl)-7a-methyloctahydro-4H-inden-4-ylidene)ethylidene)-2-methyl-4-methylenecyclohexane-1,3-diol] belongs 0.1 to 1 µM; to `C[C@H](CCN1CCO[C@H](C(F)F)C1)[C@H]1CC[C@H]2/C(=C/C=C3C[C@@H](O)C[C@H](O)C3)CCC[C@]12C` [Compound D034, (1R,3R)-5-(2-((1R,3aS,7aR,E)-1-((R)-4-((S)-2-(difluoromethyl)morpholino)butan-2-yl)-7a-methyloctahydro-4H-inden-4-ylidene)ethylidene)cyclohexane-1,3-diol], 0.01 to 0.1 µM; to `C=C1[C@H](O)CC(=C/C=C2\CCC[C@]3(C)[C@@H]([C@@H](C)CN4CCC(CC(F)F)CC4)CC[C@@H]23)C[C@H]1O` [Compound C056, (1R,3R)-5-(2-((1R,3aS,7aR,E)-1-((R)-1-(4-(2,2-difluoroethyl)piperidin-1-yl)propan-2-yl)-7a-methyloctahydro-4H-inden-4-ylidene)ethylidene)-2-methylenecyclohexane-1,3-diol], 0.01 to 0.1 µM.

With `C=C1[C@H](O)CC(=C/C=C2\CCC[C@]3(C)[C@@H]([C@H](C)CN4CCCC(C)(OC)C4)CC[C@@H]23)C[C@H]1O` (single isomer, unassigned) [Compound C047a], the concentration giving a half-maximal response (EC50) was 0.001 to 0.01 µM. On to `C=C1/C(=C\C=C2/CCC[C@]3(C)[C@@H]([C@H](C)CN4CCCC(O)(C(F)(F)F)C4)CC[C@@H]23)C[C@@H](O)C[C@@H]1O` (single isomer, unassigned) [Compound C030b], for which the EC50 fell in the range of 0.001 to 0.01 µM.

Molecule `C=C1[C@H](O)CC(=C/C=C2\CCC[C@]3(C)[C@@H]([C@H](C)CN4CCOC5(CC5)C4)CC[C@@H]23)C[C@H]1O` [Compound D011, (1R,3R)-5-(2-((1R,3aS,7aR,E)-1-((S)-1-(4-oxa-7-azaspiro[2.5]octan-7-yl)propan-2-yl)-7a-methyloctahydro-4H-inden-4-ylidene)ethylidene)-2-methylenecyclohexane-1,3-diol] showed an EC50 of 0.001 to 0.01 µM.

For the molecule `C=C1[C@H](O)CC(=C/C=C2\CCC[C@]3(C)[C@@H]([C@H](C)CCN4C[C@@H](C)O[C@@H](C)C4)CC[C@@H]23)C[C@H]1O` [Compound D028, (1R,3R)-5-(2-((1R,3aS,7aR,E)-1-((R)-4-((2S,6R)-2,6-dimethylmorpholino)butan-2-yl)-7a-methyloctahydro-4H-inden-4-ylidene)ethylidene)-2-methylenecyclohexane-1,3-diol], the EC50 is 0.001 to 0.01 µM. Molecule `C=C1[C@H](O)CC(=C/C=C2\CCC[C@]3(C)[C@@H]([C@H](C)CN4CC[C@@H](C)C4)CC[C@@H]23)C[C@H]1O` [Compound B003, (1R,3R)-5-(2-((1R,3aS,7aR,E)-7a-methyl-1-((S)-1-((R)-3-methylpyrrolidin-1-yl)propan-2-yl)octahydro-4H-inden-4-ylidene)ethylidene)-2-methylenecyclohexane-1,3-diol] gave an EC50 of 0.001 to 0.01 µM.

Values taken from patent US20230348376A1 (TEIJIN PHARMA LIMITED, priority 2020, published 2023).
